Results reported in the supplement of paper PMC11061612.

Assays:
Experiment in all cases: combination Emax (second highest fraction inhibited in the dose matrix, 72 h); higher = more inhibition; extreme values may be limits of the assay
[1] = system: BICR78 (Oral Cavity Carcinoma)
Summary of the method: (§1)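 Cell lines in DMEM/F12 or RPMI with 10% FBS were plated in 1536-well plates, held 24 hours at 37°C, 5% CO2, then given two-drug dose matrices for 72 hours (DMSO typically 0.2%). Viability was read by CellTiter-Glo 2.0 luminescence and scaled as inhibition from 0 (vehicle wells) to 1 (blank wells). Combination Emax is the second-highest inhibition in the matrix; Bliss excess is observed combination effect minus expected EA + EB − EA·EB, EA and EB being single-agent effects.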

[2] = system: CAL-39 (Other Solid Carcinomas)
Summary of the method: as §1

D-392MG (Glioblastoma) = system: D-392MG (Glioblastoma)
Summary of the method: as §1

[3] = system: EFM-192A (Breast Carcinoma)
Summary of the method: as §1

[4] = system: GDM-1 (Acute Myeloid Leukemia)
Summary of the method: as §1

[5] = system: HCT-116 (Colorectal Carcinoma)
Summary of the method: as §1

[6] = system: HLE (Hepatocellular Carcinoma)
Summary of the method: as §1

[7] = system: HOP-92 (Non-Small Cell Lung Carcinoma)
Summary of the method: as §1

HuO9 (Osteosarcoma) = system: HuO9 (Osteosarcoma)
Summary of the method: as §1

[8] = system: KG-1 (Acute Myeloid Leukemia)
Summary of the method: as §1

[9] = system: NCI-H1688 (Small Cell Lung Carcinoma)
Summary of the method: as §1

[10] = system: NOMO-1 (Acute Myeloid Leukemia)
Summary of the method: as §1

[11] = system: P31-FUJ (Acute Myeloid Leukemia)
Summary of the method: as §1

[12] = system: PA-TU-8902 (Pancreatic Carcinoma)
Summary of the method: as §1

[13] = system: RCC10RGB (Kidney Carcinoma)
Summary of the method: as §1

[14] = system: SKN-3 (Head and Neck Carcinoma)
Summary of the method: as §1

[15] = system: SNU-61 (Colorectal Carcinoma)
Summary of the method: as §1

Saos-2 (Osteosarcoma) = system: Saos-2 (Osteosarcoma)
Summary of the method: as §1

[16] = system: U-118-MG (Low Grade Glioma)
Summary of the method: as §1

[17] = system: YT (Other Blood Carcinomas)
Summary of the method: as §1

## CC1(C)CCC(CN2CCN(c3ccc(C(=O)NS(=O)(=O)c4ccc(NCC5CCOCC5)c([N+](=O)[O-])c4)c(Oc4cnc5[nH]ccc5c4)c3)CC2)=C(c2ccc(Cl)cc2)C1 [Venetoclax] + C[C@@H]1COCCN1C2=NC(=NC(=C2)C3(CC3)[S@](=N)(=O)C)C4=C5C=CNC5=NC=C4 [AZD6738] (first compound max 1 µM, 7x7, partner max 10 µM)
[1]
  combination Emax: 0.603
[2]
  combination Emax: 0.397
D-392MG (Glioblastoma)
  combination Emax: 0.339
[3]
  combination Emax: 0.299
[4]
  combination Emax: 0.946
[5]
  combination Emax: 0.671
[6]
  combination Emax: 0.642
[7]
  combination Emax: 0.562
HuO9 (Osteosarcoma)
  combination Emax: 0.814
[8]
  combination Emax: 0.917
[9]
  combination Emax: 0.451
[10]
  combination Emax: 0.973
[11]
  combination Emax: 0.968
[12]
  combination Emax: 0.344
[13]
  combination Emax: 0.5
[14]
  combination Emax: 0.576
[15]
  combination Emax: 0.43
Saos-2 (Osteosarcoma)
  combination Emax: 0.584
[16]
  combination Emax: 0.648
[17]
  combination Emax: 0.852

## CC1(C)CCC(CN2CCN(c3ccc(C(=O)NS(=O)(=O)c4ccc(NCC5CCOCC5)c([N+](=O)[O-])c4)c(Oc4cnc5[nH]ccc5c4)c3)CC2)=C(c2ccc(Cl)cc2)C1 [Venetoclax] + C[C@@H](Nc1cc(F)cc(F)c1)c1cc(C(=O)N(C)C)cc2c(=O)cc(N3CCOCC3)oc12 [AZD8186] (first compound max 1 µM, 7x7, partner max 3 µM)
[1]
  combination Emax: 0.434
[2]
  combination Emax: 0.841
D-392MG (Glioblastoma)
  combination Emax: 0.139
[3]
  combination Emax: 0.178
[4]
  combination Emax: 0.934
[5]
  combination Emax: 0.0935
[6]
  combination Emax: 0.504
[7]
  combination Emax: 0.206
HuO9 (Osteosarcoma)
  combination Emax: 0.468
[8]
  combination Emax: 0.508
[9]
  combination Emax: 0.191
[10]
  combination Emax: 0.931
[11]
  combination Emax: 0.866
[12]
  combination Emax: 0.115
[13]
  combination Emax: 0.447
[14]
  combination Emax: 0.148
[15]
  combination Emax: 0.103
Saos-2 (Osteosarcoma)
  combination Emax: 0.34
[16]
  combination Emax: 0.284
[17]
  combination Emax: 0.631

## CC1(C)CCC(CN2CCN(c3ccc(C(=O)NS(=O)(=O)c4ccc(NCC5CCOCC5)c([N+](=O)[O-])c4)c(Oc4cnc5[nH]ccc5c4)c3)CC2)=C(c2ccc(Cl)cc2)C1 [Venetoclax] + Cc1cc2ncnn2cc1Nc1ncc2c(n1)n(C1CCOCC1)c(=O)n2C [AZD7648] (first compound max 1 µM, 7x7, partner max 10 µM)
[1]
  combination Emax: 0.265
[2]
  combination Emax: 0.247
D-392MG (Glioblastoma)
  combination Emax: 0.178
[3]
  combination Emax: 0.25
[4]
  combination Emax: 0.842
[5]
  combination Emax: 0.259
[6]
  combination Emax: 0.215
[7]
  combination Emax: 0.263
HuO9 (Osteosarcoma)
  combination Emax: 0.426
[8]
  combination Emax: 0.651
[9]
  combination Emax: 0.245
[10]
  combination Emax: 0.922
[11]
  combination Emax: 0.856
[12]
  combination Emax: 0.236
[13]
  combination Emax: 0.205
[14]
  combination Emax: 0.0976
[15]
  combination Emax: 0.154
Saos-2 (Osteosarcoma)
  combination Emax: 0.325
[16]
  combination Emax: 0.412
[17]
  combination Emax: 0.732

## CC1(C)CCC(CN2CCN(c3ccc(C(=O)NS(=O)(=O)c4ccc(NCC5CCOCC5)c([N+](=O)[O-])c4)c(Oc4cnc5[nH]ccc5c4)c3)CC2)=C(c2ccc(Cl)cc2)C1 [Venetoclax] + Cn1cnc2c(F)c(Nc3ccc(Br)cc3Cl)c(C(=O)NOCCO)cc21 [Selumetinib] (first compound max 1 µM, 7x7, partner max 3 µM)
[1]
  combination Emax: 0.323
[2]
  combination Emax: 0.535
D-392MG (Glioblastoma)
  combination Emax: 0.161
[3]
  combination Emax: 0.11
[4]
  combination Emax: 0.735
[5]
  combination Emax: 0.506
[6]
  combination Emax: 0.191
[7]
  combination Emax: 0.148
HuO9 (Osteosarcoma)
  combination Emax: 0.177
[8]
  combination Emax: 0.726
[9]
  combination Emax: 0.121
[10]
  combination Emax: 0.994
[11]
  combination Emax: 0.871
[12]
  combination Emax: 0.26
[13]
  combination Emax: 0.447
[14]
  combination Emax: 0.286
[15]
  combination Emax: 0.351
Saos-2 (Osteosarcoma)
  combination Emax: 0.299
[16]
  combination Emax: 0.181
[17]
  combination Emax: 0.429
